Assay results: patent US11221329B2, “Treatment of neurological and neurodevelopmental diseases and disorders associated with aberrant ion channel expression and activity” (LIEBER INSTITUTE FOR BRAIN DEVELOPMENT, priority 2015, dated 2022)
“Also recorded” adds a separate entry of the source.

Tests used:
shTCF4 cells = assay: Whole-cell current-clamp recordings (AP spiking, mAHP/sAHP) in shTCF4 (TCF4 knockdown) mPFC layer 2/3 pyramidal neurons, acute brain slices; assay type: cell-based, rat; settings: N=8
Experimental: (§1) Pregnant Wistar rats were obtained from Charles River Laboratories, Inc., maintained by SoBran on a 12-hour light cycle and fed ad libitum. In utero electroporation was performed as previously described (Chen et al., 2014; Maher and Loturco, 2012a). Electroporation was performed on embryonic day 16 (E16) and gestation age was confirmed during surgery. All plasmids were used at a final concentration of 1.5 μg/μl, and the mPFC was targeted for transfection. Pregnant dams were returned to the same housing conditions after recovery from surgery, and after litters were born, transfected rats were used for experiments at days P18-24.
(§2) Acute brain slices were obtained from rats and mice as described previously (Maher and Loturco, 2012b). Briefly, P18-24 male and female animals were deeply anesthetized with isoflurane and transcardially perfused with ice-cold oxygenated (95% O2 and 5% CO2) dissecting buffer containing (in mM): 83 NaCl, 2.5 KCl, 1 NaH2PO4, 26.2 NaHCO3, 22 glucose, 72 sucrose, 0.5 CaCl2, and 3.3 MgCl2. Animals were humanly sacrificed and decapitated and the brains were rapidly removed and immersed in ice-cold oxygenated dissection buffer. Coronal slices (300 μm) were cut using a vibratome (Microm HM650V), incubated in dissection buffer for 30-45 minutes at 34° C., and then stored at room temperature. Slices were visualized using IR differential interference microscopy (DIC) (Olympus BX51WI) and a CCD camera (QICAM, QImaging). Individual layer 2/3 pyramidal cells expressing EGFP in rat brain slices were visualized with epifluorescent illumination and a 43× Olympus LUMPlanFLN (0.8 numerical aperture) objective.
(§3) For all experiments, artificial cerebrospinal fluid (ACSF) was oxygenated (95% O2 and 5% CO2) and contained in (in mM): 125 NaCl, 25 NaHCO3, 1.25 NaH2PO4, 3 KCl, 25 dextrose, 1 MgCl2, and 2 CaCl2, pH 7.3. Patch pipettes were fabricated from borosilicate glass (N51A, King Precision Glass, Inc.) to a resistance of 2-5 MΩ. For current- and voltage-clamp measurements, pipettes were filled with (in mM): 125 potassium gluconate, 10 HEPES, 4 Mg-ATP, 0.3 Na-GTP, 0.1 EGTA, 10 phosophocreatine, 0.05% biocytin, adjusted to pH 7.3 with KOH. For all experiments GABAa receptors were blocked with SR-95531 (Gabazine, 5 μM, Ascent Scientific). For AHP current experiments, synaptic currents were blocked with DL-2-amino-5-phosphopentanoic acid (D,L-AP5, 100 μM, Ascent Scientific), 2,3, dioxo-6-nitro-1,2,3,4, tetrahydrobenzo-quinoxaline-7-sulfonamide (NBQX, 10 μM) and SR-95531 (Gabazine, 5 μM, Ascent Scientific). Ca2+-activated currents were blocked with Tetraethylammonium chloride (TEA, 1 mM, Abcam), apamin (100 nM, Abcam), and carbachol (10 μM, Abcam). Current signals were recorded with either a Multiclamp 700A (Molecular Devices) or with an Axopatch 200B amplifier (Molecular Devices) and were filtered at 2 kHz using a built-in Bessel filter and digitized at 10 kHz. Voltage signals were filtered at 2 kHz and digitized at 10 kHz. Data were acquired using Axograph on a Dell PC. Data acquisition was terminated when series resistance was >15 MΩ. For voltage clamp recordings, pyramidal cells were held at −60 mV. No holding current was used for current-clamp recordings.
(§4) Axograph was used on a Macintosh computer for analysis. To measure spike frequency, EGFP-positive layer 2/3 neurons of the mPFC were injected with a 600 ms depolarizing current pulses ranging from 50 to 500 pA at 50 pA increments with an 10 s inter-trial interval. Each current pulse was measured in triplicate, and the number of resulting APs was averaged. For analysis of fAHP amplitude, the second and third current evoked spikes within the 600 ms pulse were measured. The fAHP potential was measured by subtracting the voltage at the peak of the fAHP from the threshold potential for spike initiation (slope of AP exceeds 50 mV/ms). The mAHP potential was measured at the peak of the AHP that followed the 600 ms current pulse. […]

KCNQ1 = KCNQ1 (Homo sapiens, UniProt P51787); settings: KCNQ1 antagonist; Towart et al., 2009; cited from earlier work
shCon cells = assay: Whole-cell current-clamp recordings (AP spiking, mAHP/sAHP) in shCon (control shRNA) mPFC layer 2/3 pyramidal neurons, acute brain slices; assay type: cell-based, rat
Experimental: as §1, §2, §3, §4

[1] = test system: AHP currents in EGFP+ cells expressing shCon or shTCF4; assay: Whole-cell voltage-clamp recordings of AHP currents with progressive pharmacological blockade; assay type: cell-based, rat
Experimental: as §3, with “kHz.” for “kHz. Voltage signals were filtered at 2 kHz and digitized at 10 kHz. Data were acquired using Axograph on a Dell PC. Data acquisition was terminated when series resistance was >15 MΩ. For voltage clamp recordings, pyramidal cells were held at −60 mV. No holding current was used for current-clamp recordings.”

TCF4 protein = assay: Western blot of endogenous TCF4 protein after shRNA transfection of rat neuroblastoma cells; assay type: cell-based; settings: transfected rat neuroblastoma cells; vs control shRNA; N=4
Experimental: Rat neuroblastoma cells (B104) were cultured in Dulbecco's modified Eagle medium (DMEM) (Thermo Fisher) supplemented with 10% FBS, 100 U-100 μg/ml Penicillin-Streptomycin, 2 mM L-Glutamine, and 100 μm non-essential amino acids and maintained at 37° C. with 5% CO2. At a confluency of […], cells were co-transfected in 6 well plates using Lipofectamine 3000 (Thermo Fisher) with 0.5 μg PBR-GFP, a puromycin selection plasmid, and 2 μg shRNA or 2 μg CRISPR-Cas9 plasmids according to the manufacturer's protocol. Cells were selected with 500 ng/mL puromycin for 24 hours and were allowed to recover in growth medium lacking penicillin-streptomycin for 48 hours.
Rat neuroblastoma cells were washed in cold PBS, scraped from plates and pelleted by centrifugation at 4000 rpm for 5 minutes at 4° C. […]
30 μg of total protein were used from each sample; protein was subjected to gel electrophoresis using a 4-12% gradient Novex Bis-Tris Bolt SDS-PAGE gel. […] Bound antibody was detected using IRdye donkey anti-goat 680 (1:10,000, Li-Cor) and IRdye donkey anti-rabbit 800 (1:10,000, Li-Cor). Antibody detection and quantification were carried out using the LI-COR Odyssey infrared system and software.

TCF4 transcript = assay: qRT-PCR of TCF4 transcript after shRNA transfection of rat neuroblastoma cells; assay type: cell-based; settings: transfected rat neuroblastoma cells; vs control shRNA; N=4
Description: To measure Tcf4 transcript expression across the lifespan in the rat, three cortical samples per age group, as well as cortical samples extracted from both genotypes of postnatal day 21 (p21) TCF4 mice to measure SCN10a and KCNQ1 expression, were separately flash frozen and homogenized in Trizol (Life Technologies). Aqueous phase was mixed with a 1:1 volume of 70% ethanol prior to purification using RNeasy mini columns treated with DNAse according to manufacturer's protocol (Qiagen). RNA samples were then reverse-transcribed to cDNA using the Quantscript Reverse Transcriptase kit (Qiagen). Amplification of cDNA was performed with iTaq SYBR Green Supermix (Bio-Rad) and TCF4, KCNQ1, and SCN10a primers were designed using with Primer 3 software (http://bioinfo.ut.ee/primer3-0.4.0/). End-point PCR followed by product sequencing, in addition to cDNA dilution series and melt curve analysis were used to verify primer design efficiency and specificity. Real time PCR was performed on the 7900HT Fast Real-Time PCR system (Applied Biosystems) and melt curve analysis was done for absolute quantification of primer efficiency. Data were expressed as fold change of gene of interest normalized to GAPDH expression using 2^delta delta Ct. […]

For `CC(C)(Oc1ccc(Cl)cc1)C(=O)NC1C2CC3CC1CC(NS(C)(=O)=O)(C3)C2` (stereo not drawn) [JNJ303, 2-(4-Chlorophenoxy)-2-methyl-N-[5-[(methylsulfonyl)amino]tricyclo[3.3.1.13,7]dec-2-yl]-propanamide], the “effect on the frequency of APs generated in response to current injections” value (shTCF4 cells; JNJ303 1 μM, shTCF4 cells, significant for current pulses 250-500 pA, p=0.0084) was “effective at increasing the spiking frequency; also recorded: significantly increased firing frequency”, the “amplitude of the sAHP after application” value (shTCF4 cells; JNJ303, shTCF4 cells, before −2.31±0.46 mV, p=0.041) was −1.71±0.33 mV and the “amplitude of the mAHP after application” value (shTCF4 cells; JNJ303, shTCF4 cells, before −3.52±0.58 mV, p<0.044) was −2.77±0.36 mV. For the same compound, the IC50 (KCNQ1) was 64 nM, the “effect on the frequency of APs (spiking)” value (shCon cells; JNJ303, N=8, p=0.11) was “neither UCL2077 (p=0.35) nor JNJ303 (p=0.11) had an effect on spiking” and the “amplitude of the sAHP after application” value (shCon cells; JNJ303, before −4.67±0.48 mV, N=9, p=0.20) was −4.22±0.57. For the same compound, the “amplitude of the mAHP after application” value (shCon cells; JNJ303, before −5.93±0.58 mV, N=9, not significant) was −5.61±0.74 mV.
With `CC[N+](CC)(CC)CC.[Cl-]` [TEA, Tetraethylammonium chloride] the “effect on the fAHP current” value ([1]; TEA 1 mM bath application, shCon and shTCF4 cells) was “blockade of the fAHP current”.
With “shTCF4_2: shRNA construct targeting the 3′ UTR of rat TCF4, GTTTCAGCATTCCCAATTA (SEQ ID NO:1) (the letters are possibly those of the target site)” the “endogenous TCF4 protein (Western blot)” value (TCF4 protein) was 36.4±4.3 % of control and the “TCF4 transcript (qRT-PCR)” value (TCF4 transcript) was 0.47±0.11 fold change from control.
With “shTCF4: shRNA construct targeting the open reading frame of rat TCF4, AGAAACTAGACGACGACAA (SEQ ID NO:2) (the letters are possibly those of the target site; listed as Homo sapiens)” the “endogenous TCF4 protein (Western blot)” value (TCF4 protein) was 1.9±2.0 % of control and the “TCF4 transcript (qRT-PCR)” value (TCF4 transcript) was 0.55±0.15 fold change from control.
With `C[N+](C)(C)CCOC(N)=O` [carbachol] the “effect on the sAHP (voltage clamp)” value ([1]; carbachol, shTCF4 cells, average voltage-clamp traces) was “block the sAHP”, the “effect on action potential frequency” value (shTCF4 cells; carbachol (10 μM) bath application, shTCF4 neurons, 600 ms pulses 50 to 500 pA, p=0.0075) was “effective at rescuing action potential frequency” and the “peak amplitude of the mAHP after application” value (shTCF4 cells; carbachol, shTCF4 cells, before −6.78±0.70, p=0.0051) was −4.23±0.60 mV. For the same compound, the effect on spiking (shCon cells; carbachol bath application, effective for current injections 200-500 pA, N=12, p=0.0038) was “increased spiking”, the “amplitude of the sAHP after application” value (shCon cells; carbachol, before −3.13±0.45, N=19, p=0.0004) was −1.10±0.32 mV and the “peak amplitude of the mAHP after application” value (shCon cells; carbachol, before −4.21±0.52, N=19, p=0.0008) was −2.32±0.31 mV.
